Assay results published in publication PMC9126886, “Yeast-based directed-evolution for high-throughput structural stabilization of G protein-coupled receptors (GPCRs)” (Scientific Reports, 2022).

How the values were obtained:
Experiment in all cases: saturation binding of fluorescent ligand, flow cytometry, permeabilized yeast
Assay type in all cases: cell-based
Details in all cases: PBS, 1% DMSO, 22 °C, 1 h; apparent affinity; labelled compound (fluorescent ligand itself); no G protein
A2aR [1] = target: T1, A2aR (Homo sapiens, UniProt P29274, N34K)
T1 construct: gene ADORA2A; full-length receptor with C-terminus (positions to 412), N-terminal synthetic pre-pro leader, no eGFP; pYES2 (subcloned from pITy-MC-His10), permeabilized S. cerevisiae BY4741
Description: (§1) saturation binding of fluorescent ligand, flow cytometry, permeabilized yeast on A2aR

A2aR [2] = target: T2, A2aR (Homo sapiens, UniProt P29274)
T2 construct: gene ADORA2A; full-length receptor with C-terminus (positions to 412), N-terminal synthetic pre-pro leader, no eGFP; pYES2 (subcloned from pITy-MC-His10), permeabilized S. cerevisiae BY4741
Description: as §1

A2aR [3] = target: T3, A2aR (Homo sapiens, UniProt P29274, P313S/P354A)
T3 construct: gene ADORA2A; full-length receptor with C-terminus (positions to 412), N-terminal synthetic pre-pro leader, no eGFP; pYES2 (subcloned from pITy-MC-His10), permeabilized S. cerevisiae BY4741
Description: as §1

T1 sequence (P29274 whole entry N34K): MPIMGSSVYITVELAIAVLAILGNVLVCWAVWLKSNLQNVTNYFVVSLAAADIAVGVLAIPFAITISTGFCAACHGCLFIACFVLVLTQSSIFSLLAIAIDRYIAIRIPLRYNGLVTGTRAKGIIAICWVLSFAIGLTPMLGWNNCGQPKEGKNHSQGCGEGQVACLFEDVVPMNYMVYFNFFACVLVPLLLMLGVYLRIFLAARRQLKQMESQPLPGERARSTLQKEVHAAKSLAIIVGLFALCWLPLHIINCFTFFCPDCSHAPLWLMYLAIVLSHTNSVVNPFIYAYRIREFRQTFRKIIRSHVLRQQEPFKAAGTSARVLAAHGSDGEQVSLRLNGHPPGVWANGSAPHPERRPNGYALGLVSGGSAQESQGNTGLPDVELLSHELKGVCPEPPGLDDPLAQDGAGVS
T2 sequence (P29274 whole entry): as the sequence (P29274 whole entry N34K) above, with K34N counted along it
T3 sequence (P29274 whole entry P313S/P354A): as the sequence (P29274 whole entry N34K) above, with K34N, P313S, P354A counted along it

logEC50 ± SE^c (A2aR [1]): −7.78 ± 0.04 | logEC50 ± SE^c (A2aR [2]): −8.01 ± 0.06 | logEC50 ± SE^c (A2aR [3]): −8.90 ± 0.03
Substance: CA200623
